# Experimental data from PubChem BioAssay (NCI).
# Several values for one entry are separate records, joined by “and”; a condition that tells them apart may be missing. Equal values may be shown once.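 96-well plates; 48 h exposure; 5 concentrations. Endpoints by linear interpolation between flanking doses. Not reached: highest tested concentration assigned. GI50 marks 50% less growth. At the TGI there is no net growth.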
# Columns and labels:
# Test in all cases: NCI anticancer screen, dose series, 48 h
# [1] = tested on: UACC-257 melanoma
# [2] = tested on: HS 578T breast
# [3] = tested on: SK-MEL-28 melanoma
# [4] = tested on: K-562 leukemia
# [5] = tested on: UACC-62 melanoma
# [6] = tested on: RPMI-8226 leukemia
# [7] = tested on: NCI-H460 lung
# [8] = tested on: HCT-15 colon
# [9] = tested on: SW-620 colon
# [10] = tested on: M14 melanoma
Structure (SMILES),GI50 [1],TGI [1],GI50 [2],TGI [2],GI50 [3],TGI [3],GI50 [4],TGI [4],GI50 [5],TGI [5],GI50 [6],TGI [6],GI50 [7],TGI [7],GI50 [8],TGI [8],GI50 [9],TGI [9],GI50 [10],TGI [10]
C[C@H]1C[C@@H](n2c(Nc3ccc(OC(F)(F)F)cc3)nc3cc(CCC(=O)O)ccc32)CC(C)(C)C1,16.6 µM,39.4 µM,10.5 µM,31.1 µM,8.26 µM,22.5 µM,11.9 µM,37.7 µM,4.91 µM,17.7 µM,10.1 µM,50.9 µM,9.74 µM,24.7 µM,5.69 µM,18.9 µM,15.3 µM,32.5 µM,7.09 µM,25 µM
CCCC(=O)OCC1OC(n2cc(F)c(=O)[nH]c2=O)CC1OC(=O)CCC (stereo not given),–,> 10 µM,–,> 10 µM,–,> 10 µM,–,> 10 µM,–,> 10 µM,–,> 10 µM,–,> 10 µM,–,> 10 µM,–,> 10 µM,–,> 10 µM
COc1ccc2[nH]c3c(C)c4c(c(C)c3c2c1)CN(C)C=C4,–,16.8 µM,–,1.48 µM,–,13.5 µM,–,46.5 µM,–,28.1 µM,–,61.9 µM,–,11.2 µM,–,75.1 µM,–,18.3 µM,–,22.7 µM
COc1ccc(-c2cn(C)c3c2-n2cccc2C3=O)cc1O,15.9 µM,32.9 µM,0.611 µM,3.9 µM,11.4 µM,33.8 µM,4.3 µM,> 100 µM,3.27 µM,12.2 µM,2.05 µM,17.5 µM,3.06 µM,20 µM,1.86 µM,9.15 µM,6.9 µM,> 100 µM,6.57 µM,20.3 µM
COc1ccc(CCN2CCCn3c2nc2ccccc2c3=O)cc1,> 100 µM,> 100 µM,0.356 µM,> 100 µM,2.42 µM,> 100 µM,< 0.0205 µM,> 100 µM,0.185 µM,> 100 µM,0.353 µM,> 100 µM,0.0512 µM,> 100 µM,0.0444 µM,> 100 µM,0.0508 µM,> 100 µM,0.0463 µM,> 100 µM
O=C1OC(c2ccc([N+](=O)[O-])cc2)=N/C1=C\c1ccc(Cl)cc1,–,> 100 µM,–,> 100 µM,–,> 100 µM,–,> 100 µM,–,> 100 µM,–,> 100 µM,–,> 100 µM,–,> 100 µM,–,> 100 µM,–,> 100 µM
COc1ccc(Cn2cc3c(c2-c2ccccc2)CCc2cnoc2-3)cc1,27.4 µM,> 100 µM,0.183 µM,–,33.9 µM,> 100 µM,0.0404 µM,> 100 µM,0.0461 µM,> 100 µM,0.167 µM,0.501 µM,0.25 µM,2.12 µM,0.127 µM,> 100 µM,0.113 µM,> 100 µM,0.155 µM,> 100 µM
CC(C)(C)OC(=O)NCCCCCCCCCn1c2c(c3ccccc3c1=O)C(=O)c1ccccc1-2,> 100 µM,> 100 µM,14.2 µM,43.6 µM,> 100 µM,> 100 µM,> 100 µM,> 100 µM,17.3 µM,40.7 µM,> 100 µM,> 100 µM,> 100 µM,> 100 µM,> 100 µM,> 100 µM,> 100 µM,> 100 µM,> 100 µM,> 100 µM
Cc1[nH]n(-c2nc(-c3ccccc3)cc(=O)[nH]2)c(=O)c1CCO,–,> 100 µM,–,> 100 µM,–,> 100 µM,–,> 100 µM,–,> 100 µM,–,> 100 µM,–,> 100 µM,–,> 100 µM,–,> 100 µM,–,> 100 µM
CN(c1cccc(C(=O)O)c1)c1cc(O/N=[N+](\[O-])N(C)C)c([N+](=O)[O-])cc1[N+](=O)[O-],> 100 µM,> 100 µM,> 100 µM,> 100 µM,85.1 µM,> 100 µM,78.8 µM,> 100 µM,> 100 µM,> 100 µM,> 100 µM,> 100 µM,> 100 µM,> 100 µM,> 100 µM,> 100 µM,> 100 µM,> 100 µM,–,–
O=C(c1ccc(Cl)cc1Cl)N1CCN(C(=O)c2ccc(Cl)cc2Cl)C1=S,28.2 µM,63.4 µM,41 µM,> 100 µM,18.4 µM,39.4 µM,31.4 µM,> 100 µM,17.3 µM,31.6 µM,–,30.7 µM,35.4 µM,> 100 µM,22.1 µM,57.3 µM,28.2 µM,98.2 µM,16.3 µM,30.2 µM
COc1ccc(-n2nc(C)c3c(Nc4ccc(NC(=O)Nc5cccc(C(F)(F)F)c5)cc4)ncnc32)cc1,1.88 µM,4.18 µM,1.66 µM,4.17 µM,1.85 µM,4.76 µM,2.18 µM,7.22 µM,1.76 µM,3.46 µM,1.78 µM,4.69 µM,1.98 µM,4.12 µM,1.46 µM,3.27 µM,2.14 µM,5.18 µM,1.54 µM,3.36 µM
COc1ccc(C2=C(c3ccc(OC)cc3)C(=O)OC2)cc1,40.1 µM,> 100 µM,0.604 µM,3.93 µM,6.29 µM,> 100 µM,1.24 µM,24.3 µM,1.3 µM,20.6 µM,1.71 µM,11.4 µM,0.893 µM,17.7 µM,0.514 µM,8.27 µM,0.361 µM,> 42.5 µM,1.64 µM,12.4 µM
COC(=O)CNC(=O)C(=O)c1c(O)c(O)c(C(C)C)c2cc(C)c(-c3c(C)cc4c(C(C)C)c(O)c(O)c(C(=O)C(=O)NCC(=O)OC)c4c3O)c(O)c12,7.89 µM,20.9 µM,1.83 µM,8.58 µM,2 µM,8.61 µM,1.88 µM,> 50 µM,2.23 µM,9.48 µM,2.72 µM,> 50 µM,1.52 µM,4.57 µM,1.49 µM,5.63 µM,1.96 µM,6.94 µM,2.09 µM,9.9 µM
N[C@H]1CCC[C@@H](O)C1O (stereo not given in full),–,> 100 µM,–,> 100 µM,–,> 100 µM,–,> 100 µM,–,> 100 µM,–,> 100 µM,–,> 100 µM,–,> 100 µM,–,> 100 µM,–,> 100 µM
CCC/C=C/C=C/C(=O)OC1/C(=C/C(=O)OC)CC2CC(C(C)O)OC(=O)CC(O)CC3CC(OC(C)=O)C(C)(C)C(O)(CC4C/C(=C/C(=O)OC)CC(/C=C/C(C)(C)C1(O)O2)O4)O3 (stereo not given),5.13 µM and 8.15 µM and > 12.5 µM,6.42 µM and 11 µM and > 12.5 µM,> 12.5 µM,10.8 µM and > 12.5 µM,8.54 µM and > 12.5 µM,> 10.9 µM and 11 µM and > 12.5 µM,8.57 µM and 3.77 µM and > 12.5 µM,10.9 µM and 11 µM and > 12.5 µM,> 10.9 µM and 5.26 µM and > 12.5 µM,> 10.9 µM and 11 µM and > 12.5 µM,8.95 µM and > 12.5 µM,> 10.9 µM and 11 µM and > 12.5 µM,9.82 µM and 2.81 µM and > 12.5 µM,10.9 µM and 11 µM and > 12.5 µM,5.15 µM and 10.8 µM and > 12.5 µM,7.35 µM and 11 µM and > 12.5 µM,> 10.9 µM and 2.99 µM and > 12.5 µM,> 10.9 µM and 4.91 µM and > 12.5 µM,–,> 11 µM
CN[C@@H](C)C(=O)N[C@H](C(=O)N1CCC[C@H]1c1nc(C(=O)c2ccc(F)cc2)cs1)C1CCCCC1,15.1 µM,31.2 µM,19 µM,74.1 µM,16.6 µM,32 µM,17 µM,38.7 µM,16.6 µM,35.2 µM,16.6 µM,55.4 µM,27.8 µM,> 72.8 µM,27.7 µM,> 95.9 µM,27.4 µM,> 77.6 µM,19.4 µM,38.4 µM
COc1ccc(C2=Nn3c(nnc3-c3ccc(F)c(Cl)c3)SC2)cc1,> 100 µM,> 100 µM,> 100 µM,> 100 µM,> 100 µM,> 100 µM,> 100 µM,> 100 µM,> 100 µM,> 100 µM,> 100 µM,> 100 µM,> 100 µM,> 100 µM,> 100 µM,> 100 µM,> 100 µM,> 100 µM,> 100 µM,> 100 µM
CCCC(=O)Oc1ccc(/C(=C(\C)c2ccc(Cl)cc2)c2ccc(OCCN(CC)CC)cc2)cc1,2.02 µM,4.18 µM,2.68 µM,9.33 µM,1.91 µM,3.91 µM,2.08 µM,5.09 µM,2.06 µM,4.04 µM,2.92 µM,9.02 µM,2.12 µM,4.4 µM,1.68 µM,3.73 µM,1.99 µM,4.35 µM,1.9 µM,4.36 µM
Nc1nc(N)nc(CCCCc2nc(N)nc(N)n2)n1,–,> 100 µM,–,> 100 µM,–,> 100 µM,–,> 100 µM,–,> 100 µM,–,> 100 µM,–,> 100 µM,–,> 100 µM,–,> 100 µM,–,> 100 µM
OCc1c(-c2cccs2)oc(-c2cccs2)c1CO,56.1 µM,> 100 µM,44.2 µM,> 100 µM,> 100 µM,> 100 µM,41 µM,> 100 µM,35.3 µM,> 100 µM,41.5 µM,> 100 µM,28.4 µM,> 100 µM,40.1 µM,> 100 µM,63.6 µM,> 100 µM,47.8 µM,> 100 µM
O=C(O)CCC(O)=C1S(=O)(=O)OCCOS1(=O)=O,–,> 100 µM,–,> 100 µM,–,> 100 µM,–,> 100 µM,–,> 100 µM,–,> 100 µM,–,> 100 µM,–,> 100 µM,–,> 100 µM,–,> 100 µM
O=C1c2ccccc2C(=O)N1c1ccc(Cc2ccc(N3C(=O)c4ccccc4C3=O)cc2)cc1,–,> 100 µM,–,> 100 µM,–,> 100 µM,–,> 100 µM,–,> 100 µM,–,> 100 µM,–,> 100 µM,–,> 100 µM,–,> 100 µM,–,> 100 µM
Cc1cc(NC(=O)NCCOc2ccc(N3C(N)=NC(N)=NC3(C)C)cc2Cl)ccc1S(=O)(=O)F,4.1 µM,> 49.1 µM,9.84 µM,76.8 µM,3.59 µM,> 91.7 µM,0.599 µM,> 100 µM,0.726 µM,35.2 µM,3.46 µM,> 55 µM,0.391 µM,17.6 µM,49 µM,> 100 µM,0.661 µM,> 100 µM,4.1 µM,> 100 µM
O=C1CCCC2=C1CC1=C(CCCC1=O)N2c1ccc(Cl)cc1,–,> 100 µM,–,> 100 µM,–,> 100 µM,–,> 100 µM,–,> 100 µM,–,> 100 µM,–,> 100 µM,–,> 100 µM,–,> 100 µM,–,> 100 µM
O=C1OC(C(O)CO)C(C(O)CO)OC1=O (stereo not given),–,> 10 µM,–,> 10 µM,–,> 10 µM,–,> 10 µM,–,> 10 µM,–,> 10 µM,–,> 10 µM,–,> 10 µM,–,> 10 µM,–,> 10 µM
COc1cc(C[C@H]2COC(=O)[C@]2(O)Cc2ccc(OCc3ccccc3)c(OC)c2)ccc1OCc1ccccc1,16 µM,> 100 µM,42.9 µM,> 100 µM,> 100 µM,> 100 µM,62.3 µM,> 100 µM,40.5 µM,> 100 µM,71.9 µM,> 100 µM,9.77 µM,> 100 µM,19 µM,> 100 µM,> 100 µM,> 100 µM,47 µM,> 100 µM
CC(NCCN(C)C)C1CCC2C3CCc4cc(O)ccc4C3CCC12C (stereo not given),–,3.83 µM,–,18.1 µM,–,5.29 µM,–,4.81 µM,–,3.45 µM,–,7.35 µM,–,4.68 µM,–,9.49 µM,–,12.7 µM,–,3.09 µM
O=C1/C(=C/c2ccc(F)cc2)COc2ccc(O)c(O)c21,2.99 µM,17.7 µM,3.5 µM,> 100 µM,2.27 µM,5.91 µM,0.354 µM,> 100 µM,2.1 µM,6.98 µM,0.26 µM,0.714 µM,3.33 µM,> 100 µM,0.755 µM,5.85 µM,2.03 µM,11.3 µM,3.21 µM,19.2 µM
